{
  "source": "patent US20130109682A1",
  "about": "“CYCLIC ETHER COMPOUNDS USEFUL AS KINASE INHIBITORS” (NOVARTIS AG, priority 2010, published 2013)",
  "type_in_all_cases": "biochemical",
  "key": {"GSK3β": {"target": "GSK3β (Homo sapiens, UniProt P49841)", "sequence (P49841 whole entry, species assumed)": "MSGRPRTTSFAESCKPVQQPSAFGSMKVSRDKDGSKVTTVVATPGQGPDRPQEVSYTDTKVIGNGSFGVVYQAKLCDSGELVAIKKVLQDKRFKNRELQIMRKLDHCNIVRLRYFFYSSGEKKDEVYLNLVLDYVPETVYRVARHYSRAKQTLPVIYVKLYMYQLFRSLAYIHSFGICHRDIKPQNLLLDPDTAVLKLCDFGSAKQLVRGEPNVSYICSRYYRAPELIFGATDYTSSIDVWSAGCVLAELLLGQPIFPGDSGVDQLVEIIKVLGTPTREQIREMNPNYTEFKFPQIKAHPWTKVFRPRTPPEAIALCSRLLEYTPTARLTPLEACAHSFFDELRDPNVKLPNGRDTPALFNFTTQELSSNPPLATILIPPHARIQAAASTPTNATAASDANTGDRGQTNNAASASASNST", "test": "GSK3β ATP depletion assay", "conditions": "ATP depletion assay; read-out: GSK3b IC50", "in_short": "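Human GSK3β (5 nM) preincubated 15 min with 10 μM biotinylated phospho-CREB peptide in pH 7.5 Tris buffer (15 mM MgCl2, 1 mM DTT, 0.1% BSA, 2.5% DMSO). Reaction started with 2 μM ATP and run to about 50% ATP depletion. Remaining ATP measured by KinaseGlo luminescence.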"}, "PKCα": {"target": "PKCα (Homo sapiens, UniProt P17252)", "test": "PKCα kinase Caliper assay", "conditions": "PKCα Caliper assay; read-out: PKC IC50", "description": "PKCα and cABLT315 Kinase Caliper Assays\nAssays were performed in 384 well microtiter plates. Each assay plate contained 8-point serial dilutions for test compounds, as well as two 16-point serial dilutions of staurosporine as reference compound, plus 16 high- and 16 low controls. Liquid handling and incubation steps were done on a Thermo CatX workstation equipped with a Innovadyne Nanodrop Express. Between pipetting steps, tips were cleaned in wash cycles using wash buffer. Plates with terminated kinase reactions were transferred to the Caliper LC3000 workstations for reading. Phosphorylated and unphosphorylated peptides were separated using the Caliper microfluidic mobilitishift technology and Kinase activities were calculated from the amounts of formed phospho-peptide.\n1. 0.05 μA Compound (start with 1.8 mM in 90% DMSO/10% H2O)\n2. +4.5 μl 2× peptide/ATP solution\n3. +4.5 μl 2× enzyme solution\n4. Incubate for 60 min at 30° C.\n4. +16 μl stop/run buffer\nIndependent of the kinase, all reactions were done performed in 50 mM HEPES, pH 7.5, 1 mM DTT, 0.02% Tween20, 0.02% BSA, and 0.6% DMSO."}, "PDGFRaV561D kinase": {"target": "PDGFRaV561D kinase (Homo sapiens, UniProt P16234, V561D)", "sequence (P16234 24-1089 V561D)": "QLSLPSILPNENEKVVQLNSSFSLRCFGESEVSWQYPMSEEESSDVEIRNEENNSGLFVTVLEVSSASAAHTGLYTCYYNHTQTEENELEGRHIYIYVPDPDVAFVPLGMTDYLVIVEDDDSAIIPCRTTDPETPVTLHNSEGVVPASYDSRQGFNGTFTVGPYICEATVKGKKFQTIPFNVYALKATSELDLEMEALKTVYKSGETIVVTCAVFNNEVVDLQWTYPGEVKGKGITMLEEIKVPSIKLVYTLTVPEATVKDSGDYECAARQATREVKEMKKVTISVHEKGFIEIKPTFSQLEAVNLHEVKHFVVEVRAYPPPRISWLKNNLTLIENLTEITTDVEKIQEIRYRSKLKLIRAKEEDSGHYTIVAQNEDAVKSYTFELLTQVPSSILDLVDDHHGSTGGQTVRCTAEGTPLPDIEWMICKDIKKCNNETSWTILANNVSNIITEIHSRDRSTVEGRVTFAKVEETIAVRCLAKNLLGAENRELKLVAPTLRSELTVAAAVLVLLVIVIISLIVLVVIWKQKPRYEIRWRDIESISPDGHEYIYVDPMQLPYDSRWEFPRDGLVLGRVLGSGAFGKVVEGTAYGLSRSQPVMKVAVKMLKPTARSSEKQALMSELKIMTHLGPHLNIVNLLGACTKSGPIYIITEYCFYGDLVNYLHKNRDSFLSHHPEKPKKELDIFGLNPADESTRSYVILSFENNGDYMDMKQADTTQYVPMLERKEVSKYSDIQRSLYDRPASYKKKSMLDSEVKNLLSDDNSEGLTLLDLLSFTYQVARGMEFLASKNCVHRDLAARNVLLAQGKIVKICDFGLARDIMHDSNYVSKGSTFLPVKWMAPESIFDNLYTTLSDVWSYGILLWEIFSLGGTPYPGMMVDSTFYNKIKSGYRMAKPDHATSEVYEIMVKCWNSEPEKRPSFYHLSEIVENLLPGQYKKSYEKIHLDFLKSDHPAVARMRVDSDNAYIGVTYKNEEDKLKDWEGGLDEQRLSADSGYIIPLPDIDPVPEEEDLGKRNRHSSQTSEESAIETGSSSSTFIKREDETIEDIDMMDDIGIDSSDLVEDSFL", "test": "PDGFRaV561D kinase inhibition assay (LanthaScreen TR-FRET)", "conditions": "read-out: PDGFRa IC50", "description": "PDGFRaV561D Kinase Inhibition Assay\nLanthaScreen™ is the detection of Time-Resolved Fluorescence Resonance Energy Transfer (TR-FRET) using lanthanide chelates to measure interactions between various binding partners. The application of TR-FRET to assay kinase activity was first described by Mathis (1995). A TR-FRET assay was used to measure PDGFRaV561D kinase inhibitory activity. The assay panel was run on a Biomek FX liquid handling workstations. To the assay plates containing […] compound or control solutions, 4.5 μL of buffer A (50 mM TRIS-HCl pH 7.4, 2 mM DTT, 0.02% Tween 20, 0.02 mM Na3VO4, H2O nanpure) including a generic concentration of ATP (2 μM f.c.) was added per well, followed by […] of buffer B (4 uM ATP in Buffer A) including a generic concentration of polyEAY (50 nM f.c.), PDGFRaV561D kinase, and divalent cations. Final concentration of kinase and cations were: [PDGFRaV561D kinase]=4.4 nM, [Mn]=10 mM. After 1 hour of incubation the kinase reactions were stopped by the addition of 4.5 μL of stop solution D (50 mM EDTA, 20 mM TRIS-HCl pH 7.4, 0.04% NP-40) immediately followed by 4.5 μL of buffer A (50 mM TRIS-HCl pH 7.4, 2 mM DTT, 0.02% Tween 20, 0.02 mM Na3VO4, H2O nanpure) including the Tb-labeled P-20 antibody to give a total detection volume of […]. After an incubation time of 45 min in the dark, the plates were transferred into the Pherastar fluorescence reader for counting. The effect of compound on the enzymatic activity was obtained from the linear progress curves and determined from one reading (end point measurement)."}},
  "data": [
    {"compound": "CC(C)[C@H]1C[C@@H](N)C[C@@H](c2ccncc2NC(=O)c2nc(-c3ccccc3)cnc2N)O1", "note": "[Example 292, 3-amino-N-(4-((2S,4R,6R)-4-amino-6-isopropyltetrahydro-2H-pyran-2-yl)pyridin-3-yl)-6-phenylpyrazine-2-carboxamide]", "values": [
      {"measurement": "IC50", "setting": "GSK3β", "value": 0.044, "unit": "µM"},
      {"measurement": "IC50", "setting": "PKCα", "value": 0.1, "unit": "µM"},
      {"measurement": "IC50", "setting": "PDGFRaV561D kinase", "value": 4.4, "unit": "µM"}
    ]},
    {"compound": "CC1(C)C[C@@H](N)C[C@H](c2ccncc2NC(=O)c2nc(-c3ccccc3)cnc2N)O1", "note": "[Example 296, 3-amino-N-(4-((2R,4S)-4-amino-6,6-dimethyltetrahydro-2H-pyran-2-yl)pyridin-3-yl)-6-phenylpyrazine-2-carboxamide]", "values": [
      {"measurement": "IC50", "setting": "GSK3β", "value": 0.0094, "unit": "µM"},
      {"measurement": "IC50", "setting": "PKCα", "value": 0.04, "unit": "µM"},
      {"measurement": "IC50", "setting": "PDGFRaV561D kinase", "value": 0.0087, "unit": "µM"}
    ]},
    {"compound": "CC1(C)C[C@H](N)C[C@@H](c2ccncc2NC(=O)c2nc(-c3ccccc3)cnc2N)O1", "note": "[Example 297, 3-amino-N-(4-((2S,4R)-4-amino-6,6-dimethyltetrahydro-2H-pyran-2-yl)pyridin-3-yl)-6-phenylpyrazine-2-carboxamide]", "values": [
      {"measurement": "IC50", "setting": "GSK3β", "value": 0.0079, "unit": "µM"},
      {"measurement": "IC50", "setting": "PKCα", "value": 0.01, "unit": "µM"},
      {"measurement": "IC50", "setting": "PDGFRaV561D kinase", "value": 0.15, "unit": "µM"}
    ]},
    {"compound": "CCC[C@H]1O[C@@H](c2ccncc2NC(=O)c2nc(-c3ccccc3)cnc2N)C[C@@H](O)[C@@H]1O", "note": "[Example 340, 3-amino-N-(4-((2R,4R,5S,6R)-4,5-dihydroxy-6-propyltetrahydro-2H-pyran-2-yl)pyridin-3-yl)-6-phenylpyrazine-2-carboxamide]", "values": [
      {"measurement": "IC50", "setting": "GSK3β", "value": 0.0009, "unit": "µM"},
      {"measurement": "IC50", "setting": "PKCα", "value": 0.86, "unit": "µM"},
      {"measurement": "IC50", "setting": "PDGFRaV561D kinase", "value": 0.81, "unit": "µM"}
    ]},
    {"compound": "Nc1ncc(-c2ccccc2)nc1C(=O)Nc1cnccc1[C@H]1C[C@@H](O)[C@H](O)[C@@H](CO)O1", "note": "[Example 341, 3-amino-N-(4-((2R,4R,5S,6R)-4,5-dihydroxy-6-(hydroxymethyl)tetrahydro-2H-pyran-2-yl)pyridin-3-yl)-6-phenylpyrazine-2-carboxamide]", "values": [
      {"measurement": "IC50", "setting": "GSK3β", "value": 0.003, "unit": "µM"},
      {"measurement": "IC50", "setting": "PKCα", "value": 0.65, "unit": "µM"},
      {"measurement": "IC50", "setting": "PDGFRaV561D kinase", "value": 0.88, "unit": "µM"}
    ]},
    {"compound": "CC[C@@H]1O[C@H](c2ccncc2NC(=O)c2nc(-c3ccccc3)cnc2N)C[C@H](N)[C@H]1O", "note": "[Example 342, 3-amino-N-(4-((2S,4S,5R,6S)-4-amino-6-ethyl-5-hydroxytetrahydro-2H-pyran-2-yl)pyridin-3-yl)-6-phenylpyrazine-2-carboxamide]", "values": [
      {"measurement": "IC50", "setting": "GSK3β", "value": 0.039, "unit": "µM"},
      {"measurement": "IC50", "setting": "PKCα", "value": 0.071, "unit": "µM"},
      {"measurement": "IC50", "setting": "PDGFRaV561D kinase", "value": 0.14, "unit": "µM"}
    ]},
    {"compound": "CC[C@H]1O[C@@H](c2ccncc2NC(=O)c2nc(-c3ccccc3)cnc2N)C[C@@H](N)[C@@H]1O", "note": "[Example 343, 3-amino-N-(4-((2R,4R,5S,6R)-4-amino-6-ethyl-5-hydroxytetrahydro-2H-pyran-2-yl)pyridin-3-yl)-6-phenylpyrazine-2-carboxamide]", "values": [
      {"measurement": "IC50", "setting": "GSK3β", "value": 0.012, "unit": "µM"},
      {"measurement": "IC50", "setting": "PKCα", "value": 0.023, "unit": "µM"},
      {"measurement": "IC50", "setting": "PDGFRaV561D kinase", "value": 0.012, "unit": "µM"}
    ]},
    {"compound": "C[C@]1(O)[C@H](N)C[C@H](c2ccncc2NC(=O)c2nc(-c3ccccc3)cnc2N)O[C@@H]1C1CC1", "note": "[Example 344, 3-amino-N-(4-((2R,4R,5S,6R)-4-amino-6-cyclopropyl-5-hydroxy-5-methyltetrahydro-2H-pyran-2-yl)pyridin-3-yl)-6-phenylpyrazine-2-carboxamide]", "values": [
      {"measurement": "IC50", "setting": "GSK3β", "value": 0.029, "unit": "µM"},
      {"measurement": "IC50", "setting": "PKCα", "value": 0.11, "unit": "µM"},
      {"measurement": "IC50", "setting": "PDGFRaV561D kinase", "value": 0.11, "unit": "µM"}
    ]},
    {"compound": "CC[C@@H]1O[C@H](c2ccncc2NC(=O)c2nc(-c3ccccc3)cnc2N)C[C@H](N)[C@@]1(C)O", "note": "[Example 345, 3-amino-N-(4-((2S,4S,5R,6S)-4-amino-6-ethyl-5-hydroxy-5-methyltetrahydro-2H-pyran-2-yl)pyridin-3-yl)-6-phenylpyrazine-2-carboxamide]", "values": [
      {"measurement": "IC50", "setting": "GSK3β", "value": 0.37, "unit": "µM"},
      {"measurement": "IC50", "setting": "PKCα", "value": 0.66, "unit": "µM"},
      {"measurement": "IC50", "setting": "PDGFRaV561D kinase", "value": 7.4, "unit": "µM"}
    ]},
    {"compound": "Nc1ncc(-c2ccccc2)nc1C(=O)Nc1cnccc1[C@H]1C[C@@H](N)[C@H](O)[C@@H](C2CC2)O1", "note": "[Example 346, 3-amino-N-(4-((2R,4R,5S,6R)-4-amino-6-cyclopropyl-5-hydroxytetrahydro-2H-pyran-2-yl)pyridin-3-yl)-6-phenylpyrazine-2-carboxamide]", "values": [
      {"measurement": "IC50", "setting": "GSK3β", "value": 0.0092, "unit": "µM"},
      {"measurement": "IC50", "setting": "PKCα", "value": 0.06, "unit": "µM"},
      {"measurement": "IC50", "setting": "PDGFRaV561D kinase", "value": 0.072, "unit": "µM"}
    ]}
  ]
}
